Measured values: US20230072683A1, “PYRIDO-PYRIMIDIN DERIVATIVES AND PHARMACEUTICAL COMPOSITION, FOR USE IN PREVENTING OR TREATING PI3 KINASE RELATED DISEASES, COMPRISING SAME AS ACTIVE INGREDIENT” (BORYUNG PHARMACEUTICAL CO., LTD, priority 2019, published 2023)
Where two headings read alike, the source gives them in different places.

What was measured:
DNA-PK(h) = DNA-PK(h) (Homo sapiens, UniProt P78527); assay: Evaluation of inhibitory activity against DNA-PK (HTRF kinase assay, GST-cMyc-p53 substrate); assay type: biochemical; conditions: for inhibition at 0.1 µM: read-out: EXP_VALUE(% Inhibition) DNA-PK(h) 0.1 μM; for inhibition at 0.01 µM: compound concentration 0.01 μM, read-out: EXP_VALUE(% Inhibition) DNA-PK(h) 0.01 μM
Procedure, shortened: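 Human DNA-PK with 50 μM GST-cMyc-p53 substrate; reaction started with Mg/ATP, run 30 min at room temperature, stopped with EDTA. Phospho-Ser15 p53 detected by HTRF (Eu anti-phospho-Ser15, d2 anti-GST), signal = 10000×(Em 665/Em 620).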

[1] = biological target: PI3K-δ (PI3K(p1108/p857) (h)) (Homo sapiens, UniProt O00329); assay: Evaluation of inhibitory activity against PI3K-δ (HTRF kinase assay); assay type: biochemical; conditions: for inhibition at 0.1 µM: read-out: EXP_VALUE(% Inhibition) PI3K-δ 0.1 μM; for inhibition at 0.01 µM: compound concentration 0.01 μM, read-out: EXP_VALUE(% Inhibition) PI3K-δ 0.01 μM
PI3K-δ (PI3K(p1108/p857) (h)), sequence (O00329 whole entry, the tested form may be a part): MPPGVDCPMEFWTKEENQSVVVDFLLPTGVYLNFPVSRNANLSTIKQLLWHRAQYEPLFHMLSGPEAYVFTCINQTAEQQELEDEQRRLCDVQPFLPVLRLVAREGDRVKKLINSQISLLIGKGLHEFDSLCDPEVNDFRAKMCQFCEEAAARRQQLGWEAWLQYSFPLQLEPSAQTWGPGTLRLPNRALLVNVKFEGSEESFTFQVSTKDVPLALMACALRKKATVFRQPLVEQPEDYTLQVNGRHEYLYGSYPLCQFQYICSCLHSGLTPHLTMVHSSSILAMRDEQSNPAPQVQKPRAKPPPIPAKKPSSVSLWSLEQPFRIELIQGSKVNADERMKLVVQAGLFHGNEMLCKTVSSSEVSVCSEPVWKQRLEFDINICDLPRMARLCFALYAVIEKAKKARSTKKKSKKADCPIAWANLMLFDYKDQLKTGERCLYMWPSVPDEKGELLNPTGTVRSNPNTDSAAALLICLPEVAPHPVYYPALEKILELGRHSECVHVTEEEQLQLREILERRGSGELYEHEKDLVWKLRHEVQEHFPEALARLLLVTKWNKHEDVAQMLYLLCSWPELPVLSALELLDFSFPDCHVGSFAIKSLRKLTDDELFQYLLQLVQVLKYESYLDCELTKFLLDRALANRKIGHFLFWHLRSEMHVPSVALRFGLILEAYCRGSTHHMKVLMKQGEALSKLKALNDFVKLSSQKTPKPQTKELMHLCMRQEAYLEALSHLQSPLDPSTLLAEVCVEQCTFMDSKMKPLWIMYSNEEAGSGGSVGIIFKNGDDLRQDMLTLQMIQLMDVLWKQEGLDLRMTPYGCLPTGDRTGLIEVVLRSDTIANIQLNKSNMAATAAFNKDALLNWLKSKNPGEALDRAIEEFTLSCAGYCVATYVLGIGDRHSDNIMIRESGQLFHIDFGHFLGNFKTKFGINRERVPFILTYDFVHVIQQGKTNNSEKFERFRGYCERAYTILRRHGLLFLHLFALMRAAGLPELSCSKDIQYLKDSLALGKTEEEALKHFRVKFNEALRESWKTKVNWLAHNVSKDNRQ
PI3K-δ (PI3K(p1108/p857) (h)), sequence (P27986 whole entry partner, the tested form may be a part): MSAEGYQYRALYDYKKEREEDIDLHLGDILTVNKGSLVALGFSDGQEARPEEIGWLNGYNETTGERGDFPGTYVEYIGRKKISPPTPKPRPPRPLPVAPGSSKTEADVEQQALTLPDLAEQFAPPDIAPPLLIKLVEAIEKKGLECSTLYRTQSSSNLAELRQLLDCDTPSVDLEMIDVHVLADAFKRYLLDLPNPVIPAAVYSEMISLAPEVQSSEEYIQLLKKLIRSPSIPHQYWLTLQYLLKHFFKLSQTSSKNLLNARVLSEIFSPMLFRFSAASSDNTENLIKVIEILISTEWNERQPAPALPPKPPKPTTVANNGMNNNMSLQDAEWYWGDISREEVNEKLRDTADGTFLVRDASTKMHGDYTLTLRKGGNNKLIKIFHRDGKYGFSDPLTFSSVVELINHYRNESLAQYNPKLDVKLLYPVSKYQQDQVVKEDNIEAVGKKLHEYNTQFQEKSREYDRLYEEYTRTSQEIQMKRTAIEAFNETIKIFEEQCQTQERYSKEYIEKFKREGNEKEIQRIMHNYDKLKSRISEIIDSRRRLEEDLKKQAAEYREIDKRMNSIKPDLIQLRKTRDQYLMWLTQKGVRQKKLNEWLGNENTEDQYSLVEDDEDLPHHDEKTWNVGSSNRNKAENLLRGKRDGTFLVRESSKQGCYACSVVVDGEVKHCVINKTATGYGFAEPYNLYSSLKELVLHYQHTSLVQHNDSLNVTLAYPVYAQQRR
Procedure, shortened: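 HTRF read-out (665/620 nm ratio ×10000) used Eu-labelled anti-GST, GST-tagged GRP1 PH domain and streptavidin-allophycocyanin after EDTA/PIP3 stop.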

inhibition at 0.1 µM (DNA-PK(h); compound at 0.1 μM) [%]	inhibition at 0.1 µM ([1]; compound at 0.1 μM) [%]	inhibition at 0.01 µM (DNA-PK(h)) [%]	inhibition at 0.1 µM (DNA-PK(h); compound concentration 0.1 μM) [%]	inhibition at 0.01 µM [1] [%]	inhibition at 0.1 µM ([1]; compound concentration 0.1 μM) [%]	Compound
		59	97	101	105	Cc1cc(-c2cccc3c(Cl)c([C@H](C)Nc4ncnc5[nH]ccc(=O)c45)n(-c4ccccc4)c(=O)c23)ccc1F [Example 128, (S)-4-((1-(4-chloro-8-(4-fluoro-3-methylphenyl)-1-oxo-2-phenyl-1,2-dihydroisoquinolin-3-yl)ethyl)amino)pyrido[2,3-d]pyrimidin-5(8H)-one]
		15		15		C[C@H](Nc1ncnc2[nH]ccc(=O)c12)c1c(Cl)c2cccc(-c3cnoc3)c2c(=O)n1-c1ccccc1 [Example 238, (S)-4-((1-(4-chloro-8-(isoxazol-4-yl)-1-oxo-2-phenyl-1,2-dihydroisoquinolin-3-yl)ethyl)amino)pyrido[2,3-d]pyrimidin-5(8H)-one]
		79		85		CNc1ccc(-c2cccc3c(Cl)c([C@H](C)Nc4ncnc5[nH]ccc(=O)c45)n(-c4ccccc4)c(=O)c23)cn1 [Example 246, (S)-4-((1-(4-chloro-8-(6-(methylamino)pyridin-3-yl)-1-oxo-2-phenyl-1,2-dihydroisoquinolin-3-yl)ethyl)amino)pyrido[2,3-d]pyrimidin-5(8H)-one]
		2		0		C[C@H](Nc1ncnc2[nH]ccc(=O)c12)c1c(Cl)c2cccc(-c3ccc(C#N)cn3)c2c(=O)n1-c1ccccc1 [Example 31, (S)-6-(4-chloro-1-oxo-3-(1-((5-oxo-5,8-dihydropyrido[2,3-d]pyrimidin-4-yl)amino)ethyl)-2-phenyl-1,2-dihydroisoquinolin-8-yl) nicotinonitrile]
		101		118		C[C@H](Nc1ncnc2[nH]ccc(=O)c12)c1c(Cl)c2cccc(-c3ccnc(F)c3)c2c(=O)n1-c1ccccc1 [Example 195, (S)-4-((1-(4-chloro-8-(2-fluoropyridin-4-yl)-1-oxo-2-phenyl-1,2-dihydroisoquinolin-3-yl)ethyl)amino)pyrido[2,3-d]pyrimidin-5(8H)-one]
		7	66	99	102	C[C@H](Nc1ncnc2[nH]ccc(=O)c12)c1c(Cl)c2cccc(-c3cc(O)cc(F)c3)c2c(=O)n1-c1ccccc1 [Example 108, (S)-4-((1-(4-chloro-8-(3-fluoro-5-hydroxyphenyl)-1-oxo-2-phenyl-1,2-dihydroisoquinolin-3-yl)ethyl)amino)pyrido[2,3-d]pyrimidin-5(8H)-one]
		73	94	110	105	C[C@H](Nc1ncnc2[nH]ccc(=O)c12)c1c(Cl)c2cccc(-c3cncnc3)c2c(=O)n1-c1ccccc1 [Example 102, (S)-4-((1-(4-chloro-1-oxo-2-phenyl-8-(pyrimidin-5-yl)-1,2-dihydroisoquinolin-3-yl)ethyl)amino)pyrido[2,3-d]pyrimidin-5(8H)-one]
		86	99	82	89	C[C@H](Nc1ncnc2[nH]ccc(=O)c12)c1c(Cl)c2cccc(-c3ccco3)c2c(=O)n1-c1ccccc1 [Example 117, (S)-4-((1-(4-chloro-8-(furan-2-yl)-1-oxo-2-phenyl-1,2-dihydroisoquinolin-3-yl)ethyl)amino)pyrido[2,3-d]pyrimidin-5(8H)-one]
		69	100	106	115	C[C@H](Nc1ncnc2[nH]ccc(=O)c12)c1c(Cl)c2cccc(-c3cnn(C)c3)c2c(=O)n1-c1ccccc1 [Example 5, (S)-4-((1-(4-chloro-8-(1-methyl-1H-pyrazol-4-yl)-1-oxo-2-phenyl-1,2-dihydroisoquinolin-3-yl)ethyl)amino)pyrido[2,3-d]pyrimidin-5(8H)-one]
		16	41	17	44	C[C@H](Nc1ncnc2[nH]ccc(=O)c12)c1c(Cl)c2cccc(-c3ccc(Cl)c(Cl)c3)c2c(=O)n1-c1ccccc1 [Example 71, (S)-4-((1-(4-chloro-8-(3,4-dichlorophenyl)-1-oxo-2-phenyl-1,2-dihydroisoquinolin-3-yl)ethyl)amino)pyrido[2,3-d]pyrimidin-5(8H)-one]

The remaining lines, values behind:

Compound	inhibition at 0.1 µM (DNA-PK(h); compound at 0.1 μM) [%]	inhibition at 0.1 µM ([1]; compound at 0.1 μM) [%]	inhibition at 0.01 µM (DNA-PK(h)) [%]	inhibition at 0.1 µM (DNA-PK(h); compound concentration 0.1 μM) [%]	inhibition at 0.01 µM [1] [%]	inhibition at 0.1 µM ([1]; compound concentration 0.1 μM) [%]
COc1ncc(-c2cccc3cc([C@H](C)Nc4ncnc5[nH]ccc(=O)c45)n(-c4ccccc4)c(=O)c23)cn1 [Example 383, (S)-4-((1-(8-(2-methoxypyrimidin-5-yl)-1-oxo-2-phenyl-1,2-dihydroisoquinolin-3-yl)ethyl)amino)pyrido[2,3-d]pyrimidin-5(8H)-one]	10	79				
C[C@H](Nc1ncnc2[nH]ccc(=O)c12)c1c(Cl)c2cccc(-c3cnc(C4CCC4)nc3)c2c(=O)n1-c1ccccc1 [Example 54, (S)-4-((1-(4-chloro-8-(2-cyclobutylpyrimidin-5-yl)-1-oxo-2-phenyl-1,2-dihydroisoquinolin-3-yl)ethyl)amino)pyrido[2,3-d]pyrimidin-5(8H)-one]			42		55	
Cc1nc(N)ncc1-c1cccc2c(Cl)c([C@H](C)Nc3ncnc4[nH]ccc(=O)c34)n(-c3ccccc3)c(=O)c12 [Example 212, (S)-4-((1-(8-(2-amino-4-methylpyrimidin-5-yl)-4-chloro-1-oxo-2-phenyl-1,2-dihydroisoquinolin-3-yl)ethyl)amino)pyrido[2,3-d]pyrimidin-5(8H)-one]			57		94	
C[C@H](Nc1ncnc2[nH]ccc(=O)c12)c1c(Cl)c2cccc(NS(=O)(=O)CC(F)(F)F)c2c(=O)n1-c1ccccc1 [Example 302, (S)—N-(4-chloro-1-oxo-3-(1-((5-oxo-5,8-dihydropyrido[2,3-d]pyrimidin-4-yl)amino)ethyl)-2-phenyl-1,2-dihydroisoquinolin-8-yl)-2,2,2-trifluoroethane-1-sulfonamide]			16		16	
COc1cccc2c(Cl)c([C@H](C)Nc3ncnc4[nH]ccc(=O)c34)n(-c3ccccc3)c(=O)c12 [Example 365, (S)-4-((1-(4-chloro-8-methoxy-1-oxo-2-phenyl-1,2-dihydroisoquinolin-3-yl)ethyl)amino)pyrido[2,3-d]pyrimidin-5(8H)-one]			28	65	31	84
C[C@H](Nc1ncnc2[nH]ccc(=O)c12)c1c(Cl)c2cccc(-n3cccn3)c2c(=O)n1-c1ccccc1 [Example 320, (S)-4-((1-(4-chloro-1-oxo-2-phenyl-8-(1H-pyrazol-1-yl)-1,2-dihydroisoquinolin-3-yl)ethyl)amino)pyrido[2,3-d]pyrimidin-5(8H)-one]			12.3	57.3	35.9	83.3
COc1cnc(-c2cccc3c(Cl)c([C@H](C)Nc4ncnc5[nH]ccc(=O)c45)n(-c4ccccc4)c(=O)c23)nc1 [Example 30, (S)-4-((1-(4-chloro-8-(5-methoxypyrimidin-2-yl)-1-oxo-2-phenyl-1,2-dihydroisoquinolin-3-yl)ethyl)amino)pyrido[2,3-d]pyrimidin-5(8H)-one]			101		12	
C[C@H](Nc1ncnc2[nH]ccc(=O)c12)c1c(Cl)c2cccc(-c3cnc(C(F)(F)F)nc3)c2c(=O)n1-c1ccccc1 [Example 153, (S)-4-((1-(4-chloro-1-oxo-2-phenyl-8-(2-(trifluoromethyl)pyrimidin-5-yl)-1,2-dihydroisoquinolin-3-yl)ethyl)amino)pyrido[2,3-d]pyrimidin-5(8H)-one]			46		77	
C[C@H](Nc1ncnc2[nH]ccc(=O)c12)c1c(Cl)c2cccc(N3CCc4ccccc43)c2c(=O)n1-c1ccccc1 [Example 341, (S)-4-((1-(4-chloro-8-(indolin-1-yl)-1-oxo-2-phenyl-1,2-dihydroisoquinolin-3-yl)ethyl)amino)pyrido[2,3-d]pyrimidin-5(8H)-one]			13	56	62	91
C[C@H](Nc1ncnc2[nH]ccc(=O)c12)c1c(Cl)c2cccc(NS(=O)(=O)C3CC3)c2c(=O)n1-c1ccccc1 [Example 301, (S)—N-(4-chloro-1-oxo-3-(1-((5-oxo-5,8-dihydropyrido[2,3-d]pyrimidin-4-yl)amino)ethyl)-2-phenyl-1,2-dihydroisoquinolin-8-yl)cyclopropanesulfonamide]			14		41	
CCc1cccc2c(Cl)c([C@H](C)Nc3ncnc4[nH]ccc(=O)c34)n(-c3ccccc3)c(=O)c12 [Example 354, (S)-4-((1-(4-chloro-8-ethyl-1-oxo-2-phenyl-1,2-dihydroisoquinolin-3-yl)ethyl)amino)pyrido[2,3-d]pyrimidin-5(8H)-one]			63	94	95	106
